Here are results for 21 molecules from patent publication US5900406A, “Use of antibiotics of the type 2-deoxystreptamine substituted with aminosugars to inhibit growth of microorganisms containing group I introns” (NZYM, Inc., priority 1991, dated 1999).

Where two headings read alike, the source gives them in different places.

Assay [1] deals with td intron (group I intron of the thymidylate synthase gene of phage T4, truncated version). The class given is biochemical. Conditions: for IC50: read-out: concentration giving approximately 50% inhibition of the second splice step of the td intron; for ability to inhibit the group I intron splice reaction: antibiotics known to interact with 23S rRNA; for inhibition of group I splicing: at millimolar concentrations. The procedure:
In vitro-transcribed and gel-purified^8 preRNA from a truncated version of the td intron^21 was incubated in a splicing buffer (50 mM Tris-HCl, pH 7.5, 5 mM MgCl2, 0.4 mM spermidine) for 10 min at 37° C. with GTP and gentamicin as indicated. Samples were separated on 5% acrylamide/7 M urea gels. RNA species are as follows: In-E2, intron-exon 2; L-ln, linear intron; E1-E2, ligated exons; E1, exon 1.
FIGS. 3a-c, Splicing experiments were done with the td intron as described in FIG. 2a, using several members of each family of aminoglycoside antibiotics (gentamicin, kanamycin and neomycin). Structures of the antibiotics can be found in Davies and Yagisaura in Biochemistry and Genetic Function Of Commercially Important Antibiotics, p. 329-354, Addison-Wesley, London, (1983) "Conc" is the antibiotic concentration at which about 50% inhibition was observed.
To monitor the splice process in vitro precursor RNA containing exon1, intron and exon2 was synthesized by in vitro transcription using bacteriophage RNA polymerase. During transcription, a radioactive labeled nucleotide was present in the nucleotide mixture and was incorporated in the RNA. This radioactive labeled RNA was then subjected to splicing conditions and after reaction the RNA splice products were separated from each other by electrophoresis on a denaturing acrylamide gel. The gel was dried and exposed for autoradiography.
Unspliced precursor RNA from the thymidylate synthase gene of the phage T4, which had been transcribed in vitro, and purified as previously described, (Schroeder, R., von Ahsen, U. & Belfort, M. Biochemistry 30, 3295-3303 (1991)) was incubated with increasing amounts of gentamicin under normal splicing conditions.
(§1) Materials and Methods: In vitro splicing experiments were performed with a truncated version of the td gene, containing 79 nt of exon I, 265 nt of intron sequences containing only the catalytic core (delta P6-2) and 21 nt of exon H (Schroeder, von Ahsen, & Belfort, 199 1, Biochemistry 30, 3295). The plasmids containing the Tetrahymena rRNA intron and the yeast mitochondrial cob intron I (the group II intron) were pBGST7 (Been & Cech, 1986, Cell 47, 207) and pBSbIl (Schmelzer and Schweyen, 1986, Cell 46, 557), respectively. The sunY intron is described in Michel et al. (1990, Genes & Development 4, 777). DNA was prepared by the alkaline-lysis procedure and linearized with appropriate restriction enzymes. Transcription was performed in a total volume of 20 μl at 30° C. for one (1) hour in buffer containing 40 mM Tris-HCl pH 7.5, 3 mM MgCl2, 0.4 mM spermidine, 1 mM of each NTP, 5 mM […], 10 units T7 RNA polymerase (Boehringer Mannheim), 10 μCi alpha-^35 S-CTP and 10 units RNAse inhibitor (Boehringer Mannheim). The reaction mixture was loaded on a 5% polyacrylamide/7 M urea gel. Precursor RNA was cut out of the gel and soaked in 400 μl elution buffer (10 mM Tris-HCl pH 7.5, 10 mM EDTA, 3.5 M NH4 OAc, 0.1% SDS) for two hours. After ethanol precipitation, the RNA was dissolved in H2 O-- before splicing experiments were performed the RNA was incubated in splicing buffer (40 mM Tris-HCl pH 7.5, 8 mM MgCl2, 0.4 mM spermidine) for 2 min at 56° C. For splicing of the suny intron and the Tetrahymena intron 50 mM NH4 Cl or 200 mM NaCl were added, respectively. Splicing was initiated by addition of guanosine at the appropriate concentration at 37° C. When splicing was to be inhibited by antibiotic, the antibiotic was added immediately before the guanosine. Splicing reactions were performed at 37° C. for 10'.

For assay [2], the system named is sunY intron (shortened version, construct SYC1.3). Nature of the assay: In vitro splicing inhibition of the sunY group I intron (GTP incorporation assay). The class given is biochemical, T4-phage. The method, then: as §1, with “DNA” for “Materials and Methods: In vitro splicing experiments were performed with a truncated version of the td gene, containing 79 nt of exon I, 265 nt of intron sequences containing only the catalytic core (delta P6-2) and 21 nt of exon H (Schroeder, von Ahsen, & Belfort, 199 1, Biochemistry 30, 3295). The plasmids containing the Tetrahymena rRNA intron and the yeast mitochondrial cob intron I (the group II intron) were pBGST7 (Been & Cech, 1986, Cell 47, 207) and pBSbIl (Schmelzer and Schweyen, 1986, Cell 46, 557), respectively. The sunY intron is described in Michel et al. (1990, Genes & Development 4, 777). DNA”, “10'. […] Samples were separated on 5% acrylamide/7 M urea gels.” for “10'.”

Where [3] appears, read: in vitro splicing, 37° C., 10 min.

Consider 2"-phospho-Gentamicin C, for which, in assay [1] (setting [3]), the IC50 is about 100 µM.

Turning to `CN[C@@H]1[C@@H](O)[C@@H](O[C@@H]2[C@@H](O)[C@H](O[C@H]3OC(CN)=CC[C@H]3N)[C@@H](N)C[C@H]2NC(C)=O)OC[C@]1(C)O` [1-N-acetyl-Sisomicin], in assay [1] (setting [3]), the IC50 is about 100 µM.

Consider `CN[C@@H]1[C@@H](O)[C@@H](O[C@@H]2[C@H](O)[C@H](O[C@H]3OC(CN)=CC[C@H]3N)[C@@H](N)C[C@H]2N)OC[C@]1(C)O` [5-epi-Sisomicin], for which the IC50 in assay [1] (setting [3]) is about 0.5 µM.

With `CN[C@@H]1[C@@H](O[C@H]2O[C@H](CO)[C@@H](N)[C@H](O)[C@H]2O)OC2C[C@@H](N)[C@@H](O[C@H]3[C@H](O)[C@@H](O)[C@H](N)C[C@@H]3N)OC2[C@@H]1O` (some centres unmarked) [Apramycin], in assay [1] (setting [3]), the IC50 is about 200 µM.

`CNC1C(O)C(OC2C(N)CC(N)C(OC3OC(CN)CCC3N)C2O)OCC1(C)O` (centres unmarked) [Dihydrosisomicin]: in assay [1] (setting [3]), the IC50 was about 100 µM.

As to `CN[C@@H]1[C@@H](O)[C@@H](O[C@@H]2[C@@H](O)[C@H](O)[C@@H](N)C[C@H]2N)OC[C@]1(C)O` [Garamine], in assay [1] (setting [3]), the IC50 is about 200 µM.

As to `CN[C@@H]1[C@@H](O)[C@@H](O[C@@H]2[C@@H](O)[C@H](O[C@H]3O[C@H](CN)[C@@H](O)[C@H](O)[C@H]3O)[C@@H](N)C[C@H]2N)OC[C@]1(C)O` [Gentamicin B], the IC50 in assay [1] (setting [3]) is about 10 µM.

Take `NC[C@H]1O[C@H](O[C@H]2[C@H](O)[C@@H](O[C@H]3O[C@H](CO)[C@@H](O)[C@H](N)[C@H]3O)[C@H](N)C[C@@H]2N)[C@H](N)[C@@H](O)[C@@H]1O` [Kanamycin B]: in assay [1] (setting [3]), the IC50 was about 10 µM.

As for `NC[C@@H]1O[C@H](O[C@H]2[C@@H](O)[C@H](O[C@@H]3[C@@H](O)[C@H](N)C[C@H](N)[C@H]3O[C@H]3O[C@H](CO)[C@@H](O)C[C@H]3N)O[C@@H]2CO)[C@H](N)[C@@H](O)[C@@H]1O[C@H]1O[C@H](CO)[C@@H](O)[C@H](O)[C@@H]1O` [Lividomycin], the IC50 in assay [1] (setting [3]) is about 500 µM.

In the case of `NC[C@H]1O[C@H](O[C@H]2[C@H](O)[C@@H](O)[C@H](N)C[C@@H]2N)[C@H](N)[C@@H](O)[C@@H]1O` [Neamine], in assay [1] (setting [3]), the IC50 is about 200 µM.

Turning to `NC[C@@H]1O[C@H](O[C@H]2[C@@H](O)[C@H](O[C@@H]3[C@@H](O)[C@H](N)C[C@H](N)[C@H]3O[C@H]3O[C@H](CN)[C@@H](O)[C@H](O)[C@H]3N)O[C@@H]2CO)[C@H](N)[C@@H](O)[C@@H]1O` [Neomycin B], the “concentration to which the sunY intron is sensitive” value in assay [2] was 10 AM. Also, in assay [1] (activity at a concentration as low as), the “lowest concentration with splicing inhibition activity” value worked out at 0.5 µM. Further, in assay [1] (first step affected only at this concentration), the “antibiotic concentration affecting the first step of splicing” value was 100 µM. In assay [1] (setting [3]), the IC50 was about 0.5 µM.

Take `NC[C@@H]1O[C@H](O[C@H]2[C@@H](O)[C@H](O[C@@H]3[C@@H](O)[C@H](N)C[C@H](N)[C@H]3O[C@H]3O[C@H](CO)[C@@H](O)[C@H](O)[C@H]3N)O[C@@H]2CO)[C@H](N)[C@@H](O)[C@@H]1O` [Paromomycin]: in assay [1] (setting [3]), the IC50 was about 100 µM.

For `CN[C@@H]1[C@@H](O)[C@@H](O[C@@H]2[C@@H](O)[C@H](O[C@H]3OC(CN)=CC[C@H]3N)[C@@H](N)C[C@H]2N)OC[C@]1(C)O` [Sisomicin], in assay [1] (setting [3]), the IC50 was about 50 µM.

Turning to `O=C(N[C@H](CO)[C@H](O)c1ccc([N+](=O)[O-])cc1)C(Cl)Cl` [chloramphenicol], in assay [1], the “ability to inhibit the group I intron splice reaction” value was “not able to inhibit” and the “inhibition of group I splicing” value was “inactive”.

Consider `CC[C@H]1OC(=O)[C@H](C)[C@@H](O[C@H]2C[C@@](C)(OC)[C@@H](O)[C@H](C)O2)[C@H](C)[C@@H](O[C@@H]2O[C@H](C)C[C@H](N(C)C)[C@H]2O)[C@](C)(O)C[C@@H](C)C(=O)[C@H](C)[C@@H](O)[C@]1(C)O` [erythromycin], for which, in assay [1], the “ability to inhibit the group I intron splice reaction” value is “not able to inhibit” and the “inhibition of group I splicing” value was “inactive”.

For the molecule `CN[C@H]1C[C@@H](N)[C@H](O)[C@@H](O[C@@H]2O[C@H](CO)[C@H](O)[C@@H]3OC4(O[C@H]23)O[C@H]([C@@H](N)CO)[C@H](O)[C@H](O)[C@H]4O)[C@@H]1O` (some centres unmarked) [hygromycin B], the “inhibition of group I splicing” value in assay [1] was “inactive”.

Regarding `C[C@H]1O[C@H](O[C@H]2[C@H](O)[C@@H](O)[C@@H](O)[C@H](O)[C@@H]2O)[C@@H](N)C[C@@H]1NC(=N)C(=O)O` [kasugamycin], the “inhibition of group I splicing” value in assay [1] is “inactive”.

Take `CN[C@@H]1[C@H](O)[C@H](NC)[C@H]2O[C@@]3(O)C(=O)C[C@@H](C)O[C@H]3O[C@@H]2[C@H]1O` [spectinomycin]: the “inhibition of group I splicing” value in assay [1] was “inactive”.

As for `C=C[C@]1(C)C[C@@H](OC(=O)CSCCN(CC)CC)[C@]2(C)[C@H](C)CC[C@]3(CCC(=O)[C@H]32)[C@@H](C)[C@@H]1O` [tiamulin], the “ability to inhibit the group I intron splice reaction” value in assay [1] was “not able to inhibit”.

With Gentamicin C, the IC50 in assay [1] is about 1 µM.

On to noursethricin, for which the “ability to inhibit the group I intron splice reaction” value in assay [1] is recorded as “not able to inhibit”.
